Reference: patent publication US20170267560A1, “TABLETS FOR TREATING AND DISINFECTING WATER” (ERCROS, S.A., priority 2014, published 2017)

Assay: Thermogravimetric analysis of the quantity of additive encapsulated in microporous or mesoporous material
Details: for % Encapsulated (g additive/g solid total) × 100: encapsulated in silica by impregnation (Example 1)
[1] = MIL-53 MOF, two steps, 60° C., encapsulation time 1 day
[2] = MIL-53 MOF, two steps, 60° C., encapsulation time 2 days
[3] = MIL-53 MOF, two steps, 60° C., encapsulation time 4 days
[4] = MIL-53 MOF, two steps, 60° C., encapsulation time 7 days
[5] = MIL-88 A (Al) MOF, in-situ encapsulation in one single step (Example 4)
[6] = MIL-88 A (Al) MOF, two steps, encapsulation time 3 days

Row | Compound | % Encapsulated (g additive/g dry solid) × 100 [1] [%] | % Encapsulated (g additive/g dry solid) × 100 [2] [%] | % Encapsulated (g additive/g dry solid) × 100 [3] [%] | % Encapsulated (g additive/g dry solid) × 100 [4] [%] | % Encapsulated (g additive/g dry solid) × 100 [5] [%] | % Encapsulated (g additive/g dry solid) × 100 [6] [%] | % Encapsulated (g additive/g solid total) × 100 [%]
1 | CC(C)=CCCC(C)CC(=O)O (stereo not shown) [Citronellic acid, citronellic acid] | 19.2 | 22.5 | 25 | 25.1 | 12.2 | 8.9 | 56.9
2 | CC(C)=CCC/C(C)=C/C(=O)O [Geranic acid, geranic acid] | 17.2 | 33.4 | 35.3 | 44.0 | 13.4 | 10.6 | 55.7
3 | CC(C)=CCC/C(C)=C/CO [Geraniol, geraniol] | 22.1 | 32.0 | 29.1 | 36.7 | 10.9 | 11.3 | 55.0
4 | CCCCN(CCC(=O)OCC)C(C)=O [IR3535, ethyl 3-[acetyl(butyl)amino]propanoate] | 26.0 | 22.1 | 26.1 | 25.2 | 21.7 | 21.0 | 58.7
